What was measured:
Neuraminidase = Neuraminidase (Influenza A virus, UniProt B4URF0); assay: Inhibition of Influenza A H1N1 virus neuraminidase after 1 hr by spectrofluorimetry using 2-(4-meythylumbelliferyl)-alpha-D-acetylneuramic acid as substrate
[1] = molecular target: Neuraminidase (Influenza A virus) (UniProt B4URF0); assay: Inhibition of Influenza A H1N1 virus neuraminidase at 200 uM after 1 hr by spectrofluorimetry using 2-(4-meythylumbelliferyl)-alpha-D-acetylneuramic acid as substrate
[2] = molecular target: Neuraminidase (Influenza A virus) (UniProt B4URF0); assay: Inhibition of Influenza A H1N1 virus neuraminidase at 40 uM after 1 hr by spectrofluorimetry using 2-(4-meythylumbelliferyl)-alpha-D-acetylneuramic acid as substrate
[3] = molecular target: Neuraminidase (Influenza A virus) (UniProt B4URF0); assay: Inhibition of Influenza A H1N1 virus neuraminidase at 8 uM after 1 hr by spectrofluorimetry using 2-(4-meythylumbelliferyl)-alpha-D-acetylneuramic acid as substrate
[4] = molecular target: Neuraminidase (Influenza A virus) (UniProt B4URF0); assay: Inhibition of Influenza A H1N1 virus neuraminidase at 1.6 uM after 1 hr by spectrofluorimetry using 2-(4-meythylumbelliferyl)-alpha-D-acetylneuramic acid as substrate
[5] = Cytotoxicity against human L02 cells after 48 hrs by MTT assay; type: cell-based; details: L02, 48 h
[6] = molecular target: Neuraminidase (Influenza A virus) (UniProt B4URF0); assay: Inhibition of Influenza A H1N1 virus neuraminidase at 100 nM after 1 hr by spectrofluorimetry using 2-(4-meythylumbelliferyl)-alpha-D-acetylneuramic acid as substrate
[7] = molecular target: Neuraminidase (Influenza A virus) (UniProt B4URF0); assay: Inhibition of Influenza A H1N1 virus neuraminidase at 20 nM after 1 hr by spectrofluorimetry using 2-(4-meythylumbelliferyl)-alpha-D-acetylneuramic acid as substrate
[8] = molecular target: Neuraminidase (Influenza A virus) (UniProt B4URF0); assay: Inhibition of Influenza A H1N1 virus neuraminidase at 4 nM after 1 hr by spectrofluorimetry using 2-(4-meythylumbelliferyl)-alpha-D-acetylneuramic acid as substrate
[9] = molecular target: Neuraminidase (Influenza A virus) (UniProt B4URF0); assay: Inhibition of Influenza A H1N1 virus neuraminidase at 0.8 nM after 1 hr by spectrofluorimetry using 2-(4-meythylumbelliferyl)-alpha-D-acetylneuramic acid as substrate
[10] = molecular target: Neuraminidase (Influenza A virus) (UniProt B4URF0); assay: Inhibition of Influenza A H1N1 virus neuraminidase at 0.16 nM after 1 hr by spectrofluorimetry using 2-(4-meythylumbelliferyl)-alpha-D-acetylneuramic acid as substrate

Chain of Neuraminidase (Influenza A virus) (B4URF0 as listed by the source): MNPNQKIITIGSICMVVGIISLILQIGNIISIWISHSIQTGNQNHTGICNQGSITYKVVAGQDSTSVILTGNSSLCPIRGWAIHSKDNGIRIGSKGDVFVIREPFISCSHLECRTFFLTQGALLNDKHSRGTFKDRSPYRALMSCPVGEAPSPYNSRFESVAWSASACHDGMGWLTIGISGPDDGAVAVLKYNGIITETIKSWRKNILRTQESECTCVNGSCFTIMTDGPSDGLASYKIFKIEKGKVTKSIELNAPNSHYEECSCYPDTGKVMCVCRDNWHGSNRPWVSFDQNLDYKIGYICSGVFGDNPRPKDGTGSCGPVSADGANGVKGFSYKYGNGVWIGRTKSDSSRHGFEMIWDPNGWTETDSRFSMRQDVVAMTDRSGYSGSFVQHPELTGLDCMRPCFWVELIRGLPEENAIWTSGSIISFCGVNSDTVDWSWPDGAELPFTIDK
Chain of Neuraminidase (B4URF0 whole entry): as the sequence (B4URF0 as listed by the source) above

Compound | IC50 (Neuraminidase) [µM] | further results
CCOC(=O)C1C(=O)NC(N)=NC1c1ccco1 (centres undefined) | > 200 | 
CCOC(=O)C1C(=O)NC(NC(=O)CC)=NC1c1ccc(Br)cc1 (centres undefined) | 106 | 
CCOC(=O)C1C(=O)NC(NC(C)=O)=NC1c1ccc(OC)cc1 (centres undefined) | 166 | 
CCOC(=O)C1C(=O)NC(N)=NC1c1ccccc1Cl (centres undefined) | 86.9 | 
CCOC(=O)C1C(=O)NC(NC(C)=O)=NC1c1ccc(Cl)cc1 (centres undefined) | 89.6 | 
CCOC(=O)C1C(=O)NC(NC(C)=O)=NC1c1ccc(Cl)cc1Cl (centres undefined) | 28.5 | inhibition [1]: 94%; inhibition [2]: 61%; inhibition [3]: 38%; inhibition [4]: 8%; IC50 [5]: > 10000 µM
CCOC(=O)C1C(=O)NC(NC(=O)C(F)(F)F)=NC1c1ccc(Br)cc1 (centres undefined) | 69.8 | 
CCOC(=O)C1C(=O)NC(NC(C)=O)=NC1c1ccccc1Cl (centres undefined) | 36.7 | 
CCOC(=O)C1C(=O)NC(NC(C)=O)=NC1c1ccc(N(C)C)cc1 (centres undefined) | 139 | 
CCOC(=O)C1=C[C@@H](OC(CC)CC)[C@H](NC(C)=O)[C@@H](N)C1 |  | inhibition [6]: 99%; inhibition [7]: 97%; inhibition [8]: 84%; inhibition [9]: 51%; inhibition [10]: 17%
CCOC(=O)C1C(=O)NC(N)=NC1c1ccc(Cl)cc1Cl (centres undefined) | 120 | 
CCOC(=O)C1C(=O)NC(N)=NC1c1ccc(N(C)C)cc1 (centres undefined) | > 200 | 
CCOC(=O)C1C(=O)NC(N)=NC1c1ccc(OC)c(OC)c1 (centres undefined) | > 200 | 
CCOC(=O)C1C(=O)NC(NC(C)=O)=NC1c1ccco1 (centres undefined) | > 200 | 
CCOC(=O)C1C(=O)NC(N)=NC1c1ccc(Cl)cc1 (centres undefined) | 110 | 
CCOC(=O)C1C(=O)NC(NC(C)=O)=NC1c1ccc(F)cc1 (centres undefined) | 96.5 | 
CCOC(=O)C1C(=O)NC(NC(C)=O)=NC1c1ccc(Br)cc1F (centres undefined) | 29.7 | inhibition [1]: 86%; inhibition [2]: 52%; inhibition [3]: 24%; inhibition [4]: 7%; IC50 [5]: > 10000 µM
CCOC(=O)C1C(=O)NC(NC(C)=O)=NC1c1ccccc1[N+](=O)[O-] (centres undefined) | 17.6 | inhibition [1]: 82%; inhibition [2]: 53%; inhibition [3]: 25%; inhibition [4]: 8%; IC50 [5]: > 10000 µM

Compound | IC50 (Neuraminidase) [µM] | further results
CCOC(=O)C1C(=O)NC(N)=NC1c1ccccc1F (centres undefined) | 89 | 
CCOC(=O)C1C(=O)NC(NC(C)=O)=NC1c1ccccc1 (centres undefined) | 57.5 | 
CCOC(=O)C1C(=O)NC(NC(C)=O)=NC1c1ccc(C)cc1 (centres undefined) | 165 | 
CCOC(=O)C1C(=O)NC(N)=NC1c1ccc(Br)cc1F (centres undefined) | 121 | 
CCOC(=O)C1C(=O)NC(N)=NC1c1ccccc1 (centres undefined) | 129 | 
CCOC(=O)C1C(=O)NC(NC(C)=O)=NC1C(C)C (centres undefined) | > 200 | 
CCOC(=O)C1C(=O)NC(N)=NC1c1ccc([N+](=O)[O-])cc1 (centres undefined) | 189 | 
CCOC(=O)C1C(=O)NC(NC(C)=O)=NC1c1ccc([N+](=O)[O-])cc1 (centres undefined) | 145 | 
CCOC(=O)C1C(=O)NC(NC(C)=O)=NC1c1ccccc1F (centres undefined) | 46.5 | 
CCOC(=O)C1C(=O)NC(N)=NC1c1ccc(F)cc1 (centres undefined) | 145 | 
CCOC(=O)C1C(=O)NC(N)=NC1C(C)C (centres undefined) | > 200 | 
CCOC(=O)C1C(=O)NC(N)=NC1c1ccccc1[N+](=O)[O-] (centres undefined) | 75.7 | 
CCOC(=O)C1C(=O)NC(N)=NC1c1ccc(OC)cc1 (centres undefined) | > 200 | 
CCOC(=O)C1C(=O)NC(N)=NC1c1ccc(Br)cc1 (centres undefined) | 125 | 
CCOC(=O)C1C(=O)NC(NC(C)=O)=NC1c1ccc(OC)c(OC)c1 (centres undefined) | > 200 | 
CCOC(=O)C1C(=O)NC(N)=NC1c1ccc(C)cc1 (centres undefined) | > 200 | 
CCOC(=O)C1C(=O)NC(NC(C)=O)=NC1c1ccc(Br)cc1 (centres undefined) | 71.3 | 

Source: ChEMBL document CHEMBL3286106, “Design and synthesis of 6-oxo-1,4,5,6-tetrahydropyrimidine-5-carboxylate derivatives as neuraminidase inhibitors” (Eur J Med Chem, 2014)
